# In patent US6376243B1, “DNA encoding a human serotonin receptor (5-HT4B) and uses thereof” (Synaptic Pharmaceutical Corporation, priority 1992, dated 2002):
# Like-named read-outs stand apart in the source and are kept apart here.
# Key:
# [1] = molecular target: T1, clone hp78a (human 5-HT4B receptor) (Homo sapiens, UniProt P34969); test: Competition of [3H]5-HT binding to membranes of cells transiently expressing clone hp78a
# [2] = molecular target: human 5-HT4B receptor (Homo sapiens, UniProt P34969); test: cAMP formation in intact Cos-7 cells transiently expressing the receptor; conditions: for inhibition at 10 µM: COS-7, read-out: % INHIBITION OF 5-HT RESPONSE
# Sequence of human 5-HT4B receptor (P34969 1-445 isoform P34969-2): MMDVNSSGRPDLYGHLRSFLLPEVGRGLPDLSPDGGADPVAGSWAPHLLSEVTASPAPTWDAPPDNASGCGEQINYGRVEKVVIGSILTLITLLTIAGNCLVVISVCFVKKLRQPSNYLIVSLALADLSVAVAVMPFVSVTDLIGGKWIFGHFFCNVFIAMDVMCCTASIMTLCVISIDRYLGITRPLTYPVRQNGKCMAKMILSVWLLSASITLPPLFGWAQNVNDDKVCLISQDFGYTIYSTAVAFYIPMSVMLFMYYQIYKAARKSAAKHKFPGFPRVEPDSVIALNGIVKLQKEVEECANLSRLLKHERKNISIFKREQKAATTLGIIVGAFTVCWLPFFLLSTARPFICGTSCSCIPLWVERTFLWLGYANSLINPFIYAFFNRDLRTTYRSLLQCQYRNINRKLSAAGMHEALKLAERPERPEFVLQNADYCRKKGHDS
# [3] = molecular target: T1, clone hp78a (human 5-HT4B receptor); test: [3H]5-HT saturation binding to membranes of transiently transfected Cos-7 cells; conditions: 100 μM Gpp(NH)p; membranes from transient transfectants
# [4] = read-out: Apparent dissociation constant Ki
# [5] = 5 nM [3H]5-HT, 30 min at 37° C., mean ± S.E.M.
# [6] = Apparent dissociation constant Ki
# [7] = Apparent dissociation constant Ki, 5 nM [3H]5-HT, seven concentrations of competitor, 30 min at 37° C., Cheng-Prusoff, mean ± S.E.M. from 2-3 determinations
# [8] = competitor 100 nM, 5 nM [3H]5-HT, 30 min at 37° C.
# T1 sequence (P34969 1-445 isoform P34969-2): as above
smiles,measurement,setting,value
CC(C)NCC(O)COc1cccc2[nH]ccc12 (racemic) [Pindolol],PERCENT INHIBITION of specific [3H]5-HT binding,[1],11%
"c1ccc2c(N3CCNCC3)cccc2c1 [1-NP, 1-naphthylpiperazine]",PERCENT INHIBITION of specific [3H]5-HT binding,[1],44%
CCN(CC)C(=O)[C@@H]1C=C2c3cccc4[nH]c(Br)c(c34)C[C@H]2N(C)C1 [2-Br-LSD],FOLD cAMP STIMULATION relative to basal levels,"[2]; drug 1 μM, intact Cos-7 cells",0 fold
same,Hill coefficient nH,[1],1.02 ± 0.16
same,Ki,[1]; [4],39 ± 7 nM
Cc1[nH]c2ccc(O)cc2c1CCN [2-Me-5-HT],PERCENT INHIBITION of specific [3H]5-HT binding,[1],7%
"NCCc1c[nH]c2ccc(O)cc12 [5-HT, 5-hydroxytryptamine]",inhibition of basal or FSK-stimulated cAMP release,"[2]; 5-HT 1 μM, transfected Cos-7 cells",not observed
same,increase in cAMP release over basal levels,[2]; discussion statement,20 fold
same,Ki in binding assays higher affinity than EC50 in functional assays,[2]; ratio of EC50 to Ki,approximately 100 fold
same,Hill coefficient nH,[1]; [5],1.07 ± 0.07
COc1ccc2[nH]cc(CCN)c2c1 [5-MeOT],agonist activity on cAMP,[2],potent agonists
same,Hill coefficient nH,[1],1.00 ± 0.03
CC(C)C[C@H]1C(=O)N2CCC[C@H]2[C@]2(O)O[C@](NC(=O)[C@@H]3C=C4c5cccc6[nH]c(Br)c(c56)C[C@H]4N(C)C3)(C(C)C)C(=O)N12 [Bromocriptine],Hill coefficient nH,[1],1.15
same,Ki,[1]; [6],135 nM
CN(C)CCc1c[nH]c2ccc(O)cc12 [Bufotenin],PERCENT INHIBITION of specific [3H]5-HT binding,[1],40%
CN1CCC(=C2c3ccccc3C=Cc3ccccc32)CC1 [Cyproheptadine],PERCENT INHIBITION of specific [3H]5-HT binding,"[1]; competitor 30 nM, 5 nM [3H]5-HT, 30 min at 37° C.",36%
CCCN(CCC)CCc1c[nH]c2ccc(C(N)=O)cc12 [DP-5-CT],Hill coefficient nH,[1],0.78
same,Ki,[1]; [4],62 nM
CCCN(CCC)C1CCc2cccc(O)c2C1 (centres unmarked) [DPAT],Hill coefficient nH,[1]; [5],0.76
CN1C[C@H](C(=O)N[C@]2(C)O[C@@]3(O)[C@@H]4CCCN4C(=O)[C@H](Cc4ccccc4)N3C2=O)C[C@@H]2c3cccc4[nH]cc(c34)C[C@H]21 [Dihydroergotamine],Hill coefficient nH,[1],1.36 ± 0.08
same,Ki,[1]; [6],6 ± 0.2 nM
same,Ki,[1]; [4],5 to 10 nM
CN1C[C@H](C(=O)N[C@]2(C)O[C@@]3(O)[C@@H]4CCCN4C(=O)[C@H](Cc4ccccc4)N3C2=O)C=C2c3cccc4[nH]cc(c34)C[C@H]21 [Ergotamine],PERCENT INHIBITION of specific [3H]5-HT binding,[1],79%
"Nc1nc2c(ncn2[C@@H]2O[C@H](COP(=O)(O)OP(=O)(O)NP(=O)(O)O)[C@@H](O)[C@H]2O)c(=O)[nH]1 [Gpp(NH)p, 5′-guanylylimidodiphosphate]",reduction of high affinity [3H]5-HT binding,[3],75%
CN1[C@@H]2CC[C@H]1C[C@@H](OC(=O)c1c[nH]c3ccccc13)C2 [ICS 203930],inhibitory effect on the 5-HT cAMP response,[2]; 100 μM,weak inhibitory effect
same,activity at the 5-HT4B receptor,[2]; discussion statement,either poorly active or inactive
same,Ki,"[1]; read-out: Apparent dissociation constant Ki, 5 nM [3H]5-HT, seven concentrations of competitor, 30 min at 37° C., Cheng-Prusoff, mean ± S.E.M. from 2-3 determinations",> 500 nM
O=C(c1ccc(F)cc1)C1CCN(CCn2c(=O)[nH]c3ccccc3c2=O)CC1 [Ketanserin],Ki,[1]; [7],> 100 nM
same,PERCENT INHIBITION of specific [3H]5-HT binding,[1]; [8],17%
CN1C[C@@H](NS(=O)(=O)N(C)C)C[C@@H]2c3cccc4c3c(cn4C)C[C@H]21 [Mesulergine],Hill coefficient nH,[1]; [5],1.09
same,Ki,[1]; [7],9.6 nM
CN1C[C@H](CNC(=O)OCc2ccccc2)C[C@@H]2c3cccc4c3c(cn4C)C[C@H]21 [Metergoline],antagonism of the 5-HT cAMP response,[2]; 10 μM,almost completely
same,inhibition at 10 µM,[2],96 ± 1%
same,Hill coefficient nH,[1]; [5],1.23
same,Ki,[1]; [7],5.5 nM
CC[C@@H](CO)NC(=O)[C@@H]1C=C2c3cccc4c3c(cn4C)C[C@H]2N(C)C1 [Methysergide],antagonism of the 5-HT cAMP response,[2],almost completely
same,inhibition at 10 µM,[2],82 ± 1.5%
same,PERCENT INHIBITION of specific [3H]5-HT binding,[1],51%
Cc1nc2sccn2c(=O)c1CCN1CCC(=C(c2ccc(F)cc2)c2ccc(F)cc2)CC1 [Ritanserin],PERCENT INHIBITION of specific [3H]5-HT binding,"[1]; competitor 10 nM, 5 nM [3H]5-HT, 30 min at 37° C.",32%
O=C(CCCN1CCC2(CC1)C(=O)NCN2c1ccccc1)c1ccc(F)cc1 [Spiperone],PERCENT INHIBITION of specific [3H]5-HT binding,[1]; [8],64%
CNS(=O)(=O)Cc1ccc2[nH]cc(CCN(C)C)c2c1 [Sumatriptan],Hill coefficient nH,[1]; [5],0.88 ± 0.03
same,Ki,[1]; [7],764 ± 29 nM
NCCc1c[nH]c2ccccc12 [Tryptamine],PERCENT INHIBITION of specific [3H]5-HT binding,[1],32%
COc1cc(N)c(Cl)cc1C(=O)NC1CN2CCC1CC2 (centres unmarked) [Zacopride],activity at the 5-HT4B receptor,[2]; discussion statement,either poorly active or inactive
same,Ki,[1]; [7],> 500 nM
same,PERCENT INHIBITION of specific [3H]5-HT binding,[1]; [8],0%
COc1cc(N)c(Cl)cc1C(=O)NC1CCN(CCCOc2ccc(F)cc2)CC1OC (centres unmarked) [cisapride],activity at the 5-HT4B receptor,[2]; discussion statement,either poorly active or inactive
